Reference: ChEMBL document CHEMBL5131474, “Resveratrol inhibited hepatocyte apoptosis and alleviated liver fibrosis through miR-190a-5p /HGF axis” (2022)
The source made the active and inactive calls. The rule behind the calls is not given here.

Key:
Hepatocyte [1] = assay: Inhibition of TGF-beta1 induced apoptosis in C57/B6J mouse primary hepatocytes assessed as live cells by Annexin-V-FITC-H and PI staining based flow cytometry analysis (reference value: 64.40 %); assay type: functional; set-up: scale not given: the % may be the effect or the level left
Hepatocyte [2] = assay: Downregulation of miR-190a-5p expression in TGF-beta induced C57/B6J mouse primary hepatocytes at 10 to 50 uM incubated for 4 hrs by qRT-PCR analysis; assay type: functional, cell-based; conditions: dose 10-50 µM
HepG2 = assay: Downregulation of miR-190a-5p expression in TGF-beta induced human HepG2 cells at 10 to 50 uM incubated for 4 hrs by qRT-PCR analysis; assay type: functional, cell-based; conditions: dose 10-50 µM
Hepatocyte [3] = assay: Inhibition of TGF-beta1 induced apoptosis in C57/B6J mouse primary hepatocytes assessed as live cells at 10 uM by Annexin-V-FITC-H and PI staining based flow cytometry analysis (reference value: 66.08 %); assay type: functional; set-up: scale not given: the % may be the effect or the level left
Hepatocyte [4] = assay: Inhibition of TGF-beta1 induced apoptosis in C57/B6J mouse primary hepatocytes assessed as early apoptotic cells at 10 uM by Annexin-V-FITC-H and PI staining based flow cytometry analysis (reference value: 18.71 %); assay type: functional; set-up: scale not given: the % may be the effect or the level left
Hepatocyte [5] = assay: Inhibition of TGF-beta1 induced apoptosis in C57/B6J mouse primary hepatocytes assessed as late apoptotic cells at 10 uM by Annexin-V-FITC-H and PI staining based flow cytometry analysis (reference value: 12.12 %); assay type: functional; set-up: scale not given: the % may be the effect or the level left
Hepatocyte [6] = assay: Inhibition of TGF-beta1 induced apoptosis in C57/B6J mouse primary hepatocytes assessed as dead cells at 10 uM by Annexin-V-FITC-H and PI staining based flow cytometry analysis (reference value: 3.09 %); assay type: functional; set-up: scale not given: the % may be the effect or the level left
Hepatocyte [7] = assay: Inhibition of TGF-beta1 induced apoptosis in C57/B6J mouse primary hepatocytes assessed as live cells at 25 uM by Annexin-V-FITC-H and PI staining based flow cytometry analysis (reference value: 66.08 %); assay type: functional; set-up: scale not given: the % may be the effect or the level left
Hepatocyte [8] = assay: Inhibition of TGF-beta1 induced apoptosis in C57/B6J mouse primary hepatocytes assessed as early apoptotic cells at 25 uM by Annexin-V-FITC-H and PI staining based flow cytometry analysis (reference value: 18.71 %); assay type: functional; set-up: scale not given: the % may be the effect or the level left
Hepatocyte [9] = assay: Inhibition of TGF-beta1 induced apoptosis in C57/B6J mouse primary hepatocytes assessed as late apoptotic cells at 25 uM by Annexin-V-FITC-H and PI staining based flow cytometry analysis (reference value: 12.12 %); assay type: functional; set-up: scale not given: the % may be the effect or the level left
Hepatocyte [10] = assay: Inhibition of TGF-beta1 induced apoptosis in C57/B6J mouse primary hepatocytes assessed as dead cells at 25 uM by Annexin-V-FITC-H and PI staining based flow cytometry analysis (reference value: 3.09 %); assay type: functional; set-up: scale not given: the % may be the effect or the level left
Hepatocyte [11] = assay: Inhibition of TGF-beta1 induced apoptosis in C57/B6J mouse primary hepatocytes assessed as live cells at 50 uM by Annexin-V-FITC-H and PI staining based flow cytometry analysis (reference value: 66.08 %); assay type: functional; set-up: scale not given: the % may be the effect or the level left
Hepatocyte [12] = assay: Inhibition of TGF-beta1 induced apoptosis in C57/B6J mouse primary hepatocytes assessed as early apoptotic cells at 50 uM by Annexin-V-FITC-H and PI staining based flow cytometry analysis (reference value: 18.71 %); assay type: functional; set-up: scale not given: the % may be the effect or the level left
Hepatocyte [13] = assay: Inhibition of TGF-beta1 induced apoptosis in C57/B6J mouse primary hepatocytes assessed as late apoptotic cells at 50 uM by Annexin-V-FITC-H and PI staining based flow cytometry analysis (reference value: 12.12 %); assay type: functional; set-up: scale not given: the % may be the effect or the level left
Hepatocyte [14] = assay: Inhibition of TGF-beta1 induced apoptosis in C57/B6J mouse primary hepatocytes assessed as dead cells at 50 uM by Annexin-V-FITC-H and PI staining based flow cytometry analysis (reference value: 3.09 %); assay type: functional; set-up: scale not given: the % may be the effect or the level left
Hepatocyte [15] = assay: Inhibition of TGF-beta1 induced apoptosis in C57/B6J mouse primary hepatocytes assessed as increase in Bcl-2 expression at 10 to 50 uM by Western blot analysis; assay type: functional, cell-based; conditions: dose 10-50 µM
Hepatocyte [16] = assay: Inhibition of TGF-beta1 induced apoptosis in C57/B6J mouse primary hepatocytes assessed as decrease in cleaved-caspase-3 expression at 10 to 50 uM by Western blot analysis; assay type: functional, cell-based; conditions: dose 10-50 µM
Hepatocyte [17] = assay: Inhibition of TGF-beta1 induced apoptosis in C57/B6J mouse primary hepatocytes assessed as early apoptotic cells by Annexin-V-FITC-H and PI staining based flow cytometry analysis (reference value: 19.89 %); assay type: functional; set-up: scale not given: the % may be the effect or the level left
Hepatocyte [18] = assay: Inhibition of TGF-beta1 induced apoptosis in C57/B6J mouse primary hepatocytes assessed as late apoptotic cells by Annexin-V-FITC-H and PI staining based flow cytometry analysis (reference value: 12.03 %); assay type: functional; set-up: scale not given: the % may be the effect or the level left
Hepatocyte [19] = assay: Inhibition of TGF-beta1 induced apoptosis in C57/B6J mouse primary hepatocytes assessed as dead cells by Annexin-V-FITC-H and PI staining based flow cytometry analysis (reference value: 3.68 %); assay type: functional; set-up: scale not given: the % may be the effect or the level left
Hepatocyte [20] = assay: Inhibition of TGF-beta1 induced apoptosis in C57/B6J mouse primary hepatocytes assessed as live cells in presence of miR-190a-5p mimic by Annexin-V-FITC-H and PI staining based flow cytometry analysis (reference value: 64.40 %); assay type: functional; set-up: scale not given: the % may be the effect or the level left
Hepatocyte [21] = assay: Inhibition of TGF-beta1 induced apoptosis in C57/B6J mouse primary hepatocytes assessed as early apoptotic cells in presence of miR-190a-5p mimic by Annexin-V-FITC-H and PI staining based flow cytometry analysis (reference value: 19.89 %); assay type: functional; set-up: scale not given: the % may be the effect or the level left
Hepatocyte [22] = assay: Inhibition of TGF-beta1 induced apoptosis in C57/B6J mouse primary hepatocytes assessed as late apoptotic cells in presence of miR-190a-5p mimic by Annexin-V-FITC-H and PI staining based flow cytometry analysis (reference value: 12.03 %); assay type: functional; set-up: scale not given: the % may be the effect or the level left
Hepatocyte [23] = assay: Inhibition of TGF-beta1 induced apoptosis in C57/B6J mouse primary hepatocytes assessed as dead cells in presence of miR-190a-5p mimic by Annexin-V-FITC-H and PI staining based flow cytometry analysis (reference value: 3.68 %); assay type: functional; set-up: scale not given: the % may be the effect or the level left
Mus musculus [24] = assay: Antifibrotic activity in CCL-4 induced liver fibrosis C57/B6J mouse model assessed as reduction in disorganized and interlaced fibers at 100 mg/kg/day, ip measured after 72 hrs post last dose by HE/Sirus red/TUNEL staining based analysis; assay type: functional, organism-based
Mus musculus [25] = assay: Inhibition of apoptosis in CCL-4 induced liver fibrosis C57/B6J mouse model at 100 mg/kg/day, ip measured after 72 hrs post last dose; assay type: functional, organism-based
Mus musculus [26] = assay: Antifibrotic activity in CCL-4 induced liver fibrosis C57/B6J mouse model assessed as reduction in hydroxyproline level in liver at 100 mg/kg/day, ip measured after 72 hrs post last dose; assay type: functional, organism-based
Mus musculus [27] = assay: Antifibrotic activity in CCL-4 induced liver fibrosis C57/B6J mouse model assessed as reduction in COL1A1 mRNA expression at 100 mg/kg/day, ip measured after 72 hrs post last dose by qRT-PCR analysis; assay type: functional, organism-based
Mus musculus [28] = assay: Antifibrotic activity in CCL-4 induced liver fibrosis C57/B6J mouse model assessed as increase in HGF expression at 100 mg/kg/day, ip measured after 72 hrs post last dose by Western blot analysis; assay type: functional, organism-based
Mus musculus [29] = assay: Antifibrotic activity in CCL-4 induced liver fibrosis C57/B6J mouse model assessed as reduction in miR-190a-5p expression in liver at 100 mg/kg/day, ip measured after 72 hrs post last dose by qRT-PCR analysis; assay type: functional, organism-based
Mus musculus [30] = assay: Antifibrotic activity in CCL-4 induced liver fibrosis C57/B6J mouse model assessed as reduction in serum AST level at 100 mg/kg/day, ip measured after 72 hrs post last dose by ELISA; assay type: functional, organism-based
Mus musculus [31] = assay: Antifibrotic activity in CCL-4 induced liver fibrosis C57/B6J mouse model assessed as reduction in serum ALT level at 100 mg/kg/day, ip measured after 72 hrs post last dose by ELISA; assay type: functional, organism-based
Mus musculus [32] = assay: Antifibrotic activity in CCL-4 induced liver fibrosis C57/B6J mouse model assessed as increase in albumin level in serum at 100 mg/kg/day, ip measured after 72 hrs post last dose by ELISA; assay type: functional, organism-based
Hepatocyte [33] = assay: Inhibition of TGF-beta1 induced apoptosis in C57/B6J mouse primary hepatocytes assessed as live cells at 10 uM in presence of miR-190a-5p inhibitor by Annexin-V-FITC-H and PI staining based flow cytometry analysis (reference value: 61.65 %); assay type: functional; set-up: scale not given: the % may be the effect or the level left
Hepatocyte [34] = assay: Inhibition of TGF-beta1 induced apoptosis in C57/B6J mouse primary hepatocytes assessed as early apoptotic cells at 10 uM in presence of miR-190a-5p inhibitor by Annexin-V-FITC-H and PI staining based flow cytometry analysis (reference value: 18.90 %); assay type: functional; set-up: scale not given: the % may be the effect or the level left
Hepatocyte [35] = assay: Inhibition of TGF-beta1 induced apoptosis in C57/B6J mouse primary hepatocytes assessed as late apoptotic cells at 10 uM in presence of miR-190a-5p inhibitor by Annexin-V-FITC-H and PI staining based flow cytometry analysis (reference value: 13.96 %); assay type: functional; set-up: scale not given: the % may be the effect or the level left
Hepatocyte [36] = assay: Inhibition of TGF-beta1 induced apoptosis in C57/B6J mouse primary hepatocytes assessed as dead cells at 10 uM in presence of miR-190a-5p inhibitor by Annexin-V-FITC-H and PI staining based flow cytometry analysis (reference value: 5.49 %); assay type: functional; set-up: scale not given: the % may be the effect or the level left
Hepatocyte [37] = assay: Induction of apoptosis in TGF-beta1-stimulated C57/B6J mouse primary hepatocytes assessed as reversal of miR-190a-5p inhibitor induced increase in Bcl-2 expression at 10 uM by Western blot analysis; assay type: functional, cell-based
Hepatocyte [38] = assay: Induction of apoptosis in TGF-beta1-stimulated C57/B6J mouse primary hepatocytes assessed as reversal of miR-190a-5p inhibitor induced decrease in cleaved-caspase 3 expression at 10 uM by Western blot analysis; assay type: functional, cell-based
Hepatocyte [39] = assay: Downregulation of TGF-beta1 and miR-190a-5p inhibitor induced HGF mRNA expression in C57/B6J mouse primary hepatocytes at 10 uM by qRT-PCR analysis; assay type: functional, cell-based
Hepatocyte [40] = assay: Downregulation of TGF-beta1 and miR-190a-5p inhibitor induced HGF protein expression C57/B6J mouse primary hepatocytes at 10 uM by Western blot analysis; assay type: functional, cell-based

Compound: Oc1ccc(/C=C/c2cc(O)cc(O)c2)cc1 [RESVERATROL]
- Activity (Hepatocyte [1]): 83.06%
- Activity (Hepatocyte [2]): Active
- Activity (HepG2): Active
- Activity (Hepatocyte [3]): 69.83%
- Activity (Hepatocyte [4]): 16.37%
- Activity (Hepatocyte [5]): 11.36%
- Activity (Hepatocyte [6]): 2.44%
- Activity (Hepatocyte [7]): 75.96%
- Activity (Hepatocyte [8]): 12.59%
- Activity (Hepatocyte [9]): 9.96%
- Activity (Hepatocyte [10]): 1.49%
- Activity (Hepatocyte [11]): 84.53%
- Activity (Hepatocyte [12]): 7.99%
- Activity (Hepatocyte [13]): 6.54%
- Activity (Hepatocyte [14]): 0.95%
- inhibition (Hepatocyte [15]): Active
- inhibition (Hepatocyte [16]): Active
- Activity (Hepatocyte [17]): 10.05%
- Activity (Hepatocyte [18]): 5.25%
- Activity (Hepatocyte [19]): 0.64%
- Activity (Hepatocyte [20]): 70.1%
- Activity (Hepatocyte [21]): 17.41%
- Activity (Hepatocyte [22]): 11.38%
- Activity (Hepatocyte [23]): 1.12%
- Activity (Mus musculus [24]): Active
- inhibition (Mus musculus [25]): Active
- Activity (Mus musculus [26]): Active
- Activity (Mus musculus [27]): Active
- Activity (Mus musculus [28]): Active
- Activity (Mus musculus [29]): Active
- Activity (Mus musculus [30]): Active
- Activity (Mus musculus [31]): Active
- Activity (Mus musculus [32]): Active

Compound: CC1CN(CC2CCN(Cc3ccccc3)CC2)C(=O)N(c2cccc(C(=N)N)c2)C1.O=C(O)C(F)(F)F (stereo unspecified)
- Activity (Hepatocyte [33]): 64.46%
- Activity (Hepatocyte [34]): 18.6%
- Activity (Hepatocyte [35]): 13.59%
- Activity (Hepatocyte [36]): 3.35%
- Activity (Hepatocyte [37]): Active
- Activity (Hepatocyte [38]): Active
- Activity (Hepatocyte [39]): Active
- Activity (Hepatocyte [40]): Active
